Source: PubChem BioAssay (NCI)
Where “and” joins values, the source holds several entries; their conditions need not be identical. Identical values can stand only once.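 Tested at 5 concentrations; 48 h exposure; 96-well plates; endpoints linearly interpolated, else capped at highest concentration. GI50 = concentration required for 50% inhibition of growth. Definition used: TGI = concentration required for complete inhibition of growth.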

Key:
Experiment in all cases: inhibition of tumour cell growth, NCI panel, 48 h
[1] = system: COLO 205 colon
[2] = system: DMS 114 small cell lung
[3] = system: EKVX NSCLC
[4] = system: KM20L2 colon
[5] = system: MOLT-4 leukemia
[6] = system: SNB-75 CNS
[7] = system: SR leukemia
[8] = system: UACC-257 melanoma
[9] = system: UACC-62 melanoma
[10] = system: XF 498 CNS
[11] = system: MCF7 breast

Compound | TGI [1] | TGI [2] [µM] | TGI [3] | TGI [4] [µM] | TGI [5] | TGI [6] | TGI [7] | TGI [8] | TGI [9] [µM] | TGI [10] [µM] | GI50 [1] [µM] | GI50 [3] | GI50 [11] [µM] | TGI [11] | GI50 [5] | GI50 [6] [µM] | GI50 [7] [µM] | GI50 [8] | GI50 [9] [µM]
Cc1ccc(S(=O)OCc2c(C)c(C)c(COS(=O)c3ccc(C)cc3)c(C)c2C)cc1 (configuration not stated) | > 100 µM | > 100 | > 100 µM | > 100 | > 100 µM | > 100 µM | > 100 µM | > 100 µM | > 100 | > 100 | – | – | – | – | – | – | – | – | –
CSc1nc(NC2OC(COC(C)=O)C(OC(C)=O)C(OC(C)=O)C2OC(C)=O)c(N=CC=Nc2c(NC3OC(COC(C)=O)C(OC(C)=O)C(OC(C)=O)C3OC(C)=O)nc(SC)n(C)c2=O)c(=O)n1C (configuration not stated) | > 100 µM | > 100 | > 100 µM | > 100 | > 100 µM | 25.4 µM and 24.3 µM | > 100 µM | > 100 µM | > 100 | 30.3 | > 50 | > 50 µM | > 50 | > 100 µM | > 50 µM | 8.97 | > 50 | > 50 µM | > 50
Nc1ccn(C2OC(CO)C(O)C2O)c(=O)n1 (configuration not stated) | > 500 µM | 417 | > 500 µM | > 482 | – | > 500 µM | > 100 µM and > 29.3 µM and 53.7 µM | > 500 µM | – | > 494 | – | – | 0.0408 | > 100 µM and 434 µM and > 500 µM | 0.0103 µM and 0.0148 µM | – | – | 14.4 µM | 1.93
CCN(CC)CCSc1c2ccccc2nc2c(OC)ccc(OC)c12 | – | 3.24 | > 100 µM | > 21.1 | 3.84 µM | > 70 µM | 10.7 µM | 16.5 µM | > 22.2 | > 21.1 | – | – | – | – | – | – | – | – | –
C[Si](C)(C)/C(Br)=C\CCN1C(=O)CCC1=O | > 100 µM | > 100 | > 100 µM | > 100 | > 100 µM | > 100 µM | > 100 µM | > 100 µM | > 100 | > 100 | – | – | – | – | – | – | – | – | –
CC(C)(C)[Si](C)(C)OC1C(=O)C[C@H]2CCCC[C@@H]12 (some centres not stated) | > 100 µM | > 100 | > 100 µM | > 100 | > 100 µM | > 100 µM | – | > 100 µM | > 100 | > 100 | – | – | – | – | – | – | – | – | –
[N-]=[N+]=N/C1=C/CCCCC(=O)C1 | > 100 µM | > 100 | > 100 µM | > 100 | > 100 µM | > 100 µM | – | > 100 µM | > 100 | > 100 | – | – | – | – | – | – | – | – | –
COc1ccc2c(c1)c[n+](C)c1c3cc(OC)c(OC)cc3ccc21 | 3.5 µM and 2.99 µM | 7.14 | 4.52 µM and 42.3 µM | 17.8 | 3.81 µM and 17.9 µM | 20 µM | 13.2 µM | 4.36 µM and 30.8 µM | 23.9 | 17.1 | – | 1.5 µM and 11.3 µM | – | – | 0.358 µM and 1.7 µM | 6.66 | – | 1.8 µM and 13.5 µM | –
O=C1CCC(=O)c2c1c(O)c1ccncc1c2O | 20.8 µM | 25.4 | 47.6 µM | 49.8 | 43.1 µM | 34.7 µM | 34.7 µM | 20.2 µM | 20.1 | 32.7 | – | – | – | – | – | – | – | – | –
CC(=O)N1CCC(=O)/C(=C/c2ccccc2)C1 | > 100 µM | 30.8 | – | > 100 | > 100 µM | > 100 µM | 72.5 µM | > 100 µM | 82.7 | > 100 | – | – | – | – | – | – | – | – | –
